ChEMBL document CHEMBL1143863, “N(G)-aminoguanidines from primary amines and the preparation of nitric oxide synthase inhibitors” (J Med Chem, 2008)

Legend:
[1] = target: T1, Nitric oxide synthase, inducible (Homo sapiens, UniProt P35228); assay: Binding affinity to truncated iNOS construct (1-490) by spectral assay
[2] = target: T1, Nitric oxide synthase, inducible; assay: Inhibition of full length iNOS by high-throughput oxymyoglobin assay
[3] = target: T1, Nitric oxide synthase, inducible

T1 sequence (P35228 whole entry, the tested form may be a part): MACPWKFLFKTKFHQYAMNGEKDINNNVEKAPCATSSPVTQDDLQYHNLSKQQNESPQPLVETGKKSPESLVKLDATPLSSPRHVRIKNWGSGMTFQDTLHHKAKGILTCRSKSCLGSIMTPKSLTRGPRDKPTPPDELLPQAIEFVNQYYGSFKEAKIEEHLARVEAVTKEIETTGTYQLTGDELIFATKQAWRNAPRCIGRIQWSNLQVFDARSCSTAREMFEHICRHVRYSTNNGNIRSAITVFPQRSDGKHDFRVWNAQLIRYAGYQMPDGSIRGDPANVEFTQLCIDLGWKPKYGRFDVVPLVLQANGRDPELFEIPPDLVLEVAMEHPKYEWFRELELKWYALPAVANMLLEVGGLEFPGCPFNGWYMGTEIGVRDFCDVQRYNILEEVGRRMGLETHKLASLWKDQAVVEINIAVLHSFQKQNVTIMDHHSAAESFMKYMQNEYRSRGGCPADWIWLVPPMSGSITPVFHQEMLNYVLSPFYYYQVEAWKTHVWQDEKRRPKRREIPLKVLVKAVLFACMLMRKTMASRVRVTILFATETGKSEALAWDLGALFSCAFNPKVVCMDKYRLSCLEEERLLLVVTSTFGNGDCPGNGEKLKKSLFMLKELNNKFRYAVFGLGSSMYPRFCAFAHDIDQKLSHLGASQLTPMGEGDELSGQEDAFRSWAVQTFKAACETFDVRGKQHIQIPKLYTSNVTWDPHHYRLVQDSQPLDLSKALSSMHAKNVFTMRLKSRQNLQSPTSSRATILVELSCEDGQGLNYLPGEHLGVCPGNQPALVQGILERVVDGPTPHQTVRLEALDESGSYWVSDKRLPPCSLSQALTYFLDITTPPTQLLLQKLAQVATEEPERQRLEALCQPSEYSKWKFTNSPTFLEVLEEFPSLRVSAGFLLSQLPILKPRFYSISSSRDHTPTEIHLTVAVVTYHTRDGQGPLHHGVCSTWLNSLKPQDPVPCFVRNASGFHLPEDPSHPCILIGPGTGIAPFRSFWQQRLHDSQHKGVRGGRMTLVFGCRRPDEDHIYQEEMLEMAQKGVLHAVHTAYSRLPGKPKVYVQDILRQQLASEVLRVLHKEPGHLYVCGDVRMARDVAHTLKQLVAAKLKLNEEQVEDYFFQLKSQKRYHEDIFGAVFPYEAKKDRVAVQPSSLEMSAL

Row | Structure (SMILES) | Kd [1] | Ki [2] | Kinact [3]
1 | N=C(N)NCCC[C@H](N)C(=O)O [ARGININE] | 7 µM | – | –
2 | N/N=C(\N)NCCC[C@H](N)C(=O)O | 1.3 µM | 2.2 µM | 0.18 min⁻¹
3 | N/C(=N/CCC[C@H](N)C(=O)O)N(N)CC(F)(F)F | 40.4 µM | 10.5 µM | –

Continued, in another order:

Row | Kd [1] | Ki [2] | Structure (SMILES) | Kinact [3]
4 | 10 µM | 34.1 µM | CN(N)/C(N)=N\CCC[C@H](N)C(=O)O | 0.39 min⁻¹
5 | 29 µM | 16.4 µM | CN/N=C(\N)NCCC[C@H](N)C(=O)O | –
